From patent US20230098403A1, “MAGNETIC RESONANCE IMAGING CONTRAST AGENT, PREPARATION METHOD AND USE THEREOF” (GUANGZHOU PINGLAN MEDICAL TECHNOLOGY CO., LTD., priority 2020, published 2023)

What was measured:
[1] = Relaxivity measurement (T1 and T2 relaxation, MRI Contrast Agent Analyzer); format: physicochemical; conditions: 0.5 T, 32° C., pH=7.4
Experimental: The method for measuring the relaxivity comprises the following steps: preparing contrast agent solutions in a gradient concentration (0.054, 0.109, 0.224, 0.451, 0.906 mM, in Hepes buffer, pH=7.4), and measuring the contrast agent samples at different concentrations by Niumag PQ001 MRI Contrast Agent Analyzer (0.5±0.08T, main frequency of instrument: 21.3 MHz; at 32° C.) to respectively obtain their T1 and T2 relaxation time, and then performing a linear fitting between the relaxation rate, Ri (Ri=1/Ti, i=1, 2) and the contrast agent concentrations to obtain a slope, i.e., relaxivity (ri, i=1, 2). Relaxivity reflects the ability of magnetic resonance imaging contrast agent to alter the relaxation time of water proton and is an important parameter to evaluate the quality of contrast agent. Relaxivity (ri, i=1, 2) is defined as the alteration in the relaxation rate of water proton (1/Ti, i=1, 2) by unit concentration of MRI Contrast agent (mmol/L).

[2] = Excretion kinetics test, Mn^2+ in urine and bile by ICP-MS; format: in vivo, SD rats; conditions: tail vein 0.1 mmol/kg; for Bile: Mn^2+ excretion amount / Bile: cumulative Mn^2+ excretion amount / Bile: cumulative Mn^2+ excretion rate / Urine: Mn^2+ excretion amount / Urine: cumulative Mn^2+ excretion amount / Urine: cumulative Mn^2+ excretion rate: SD rats, n = 7
Experimental: Clean grade Sprague Dawley (SD) rats, 5 males and 3 females, weighing 250±50 g, were purchased from the Animal Experimental Center of North Sichuan Medical College, fasted for 12-16 h before the experiment and anesthetized by intraperitoneal injection of 3% sodium pentobarbital (40 mg/kg).
The rat tail was soaked in hot water at about 40° C. for about 1 minute, and it was wiped and sterilized by a cotton ball dipped in alcohol followed by fixing and stretching the tip of the tail with left thumb and middle finger, and flatting with the index finger. The tail vein was located at both sides of the tail and was light cyan in color. Air in an indwelling needle was removed with normal saline, and the indwelling needle was inserted into the vein at an angle of 15° to the vein. When blood was returned, the indwelling needle was pushed forward after insertion. Then the indwelling needle was fixed on the tail of the rat, and normal saline was injected at a rate of about 2 mL/h.
After sterilization, a longitudinal incision was made in the middle of the abdomen of rats below the xiphoid, by incising the skin, subcutaneous tissue, linea alba, and peritoneum layer by layer into the abdomen. A forcep was used for opening the left and right lobes of the liver, below which the duodenum and omentum were exposed. The transverse part of the duodenum was stretched with the forcep in the middle, and the pale yellow biliary tract was covered by the omentum and extended from the subhepatic portion to the duodenum. The biliary tract was bluntly dissected out, picked out with a glass pick, and a venous indwelling needle was inserted near the duodenum, fixed with a hemostatic clip, and bile was collected as a pre-dose sample.
A longitudinal incision was made at 0.5 cm above the urethral orifice of rats, and the skin was incised and the muscles were bluntly separated. After the bladder was filled to a certain extent, the bladder was lifted by the left hand with a tweezer, and the venous indwelling needle was held by the right hand and was obliquely inserted into the bladder toward the top, along the opening of ureter on the dorsal lateral side of the bladder, and the needle was removed to collect urine as a pre-dose sample.
After collecting pre-dose bile and urine samples, the drug was rapidly administered in the tail vein at a dose of 0.1 mmol/kg.
The hourly biliary excretion amount and hourly urinary excretion amount were collected after drug administration; the samples were weighed and frozen at −20° C.
[…] of the sample (bile and urine) was diluted to 6 to 10 ml with 1% HNO3 to make the concentrations of Mn^2+ in the range of 1 to 1000 ppb. The concentrations of Mn^2+ in the samples solution were numbered and detected. The Mn^2+ concentrations in the sample solutions were calculated according to the response intensity and standard curve.
Origin 9.0 was used for calculating data and drawing. The excretion amount during the period was obtained by multiplying the dilution ratio, measurement concentration and urine (bile) volume. The excretion amount during each period was compared with the dosage of administration to obtain the percentage of cumulative drug excretion amount during the corresponding time period.

[3] = In vivo imaging in rats (3.0 T MRI); conditions: SD rats, 0.2 mmol/kg tail vein
Experimental: 1. Sixteen SD rats were divided into a KBR0826 contrast agent group (experimental group) and a gadoteric acid meglumine (Gd-DOTA) contrast agent group (control group), with 8 rats in each group, fasted for 12 hours (drank water freely).
2. 3% sodium pentobarbital (60 to 70 mg/kg) was weighed for intraperitoneal anesthesia.
3. The dosage of KBR0826 was 0.2 mmol/kg. SD rats were imaged in vivo with a 3.0 T MRI imager. Contrast agents were injected into the tail vein. The signal intensities (SI) of the heart, liver, brain parenchyma, muscle, and abdominal aorta in rats were measured before and after injection, and signal to noise ratio (SNR) was calculated and time-signal intensity curve was drawn to evaluate the imaging effect of the contrast agents.

O=C([O-])CN(CP(=O)([O-])O)C1CCCCC1N(CC(=O)[O-])CP(=O)([O-])O.[Mn+2].[Na+].[Na+] (centres unmarked) [KBR0826]
relaxivity r1 [1]: 3.12 mmol⁻¹ s⁻¹
Bile: Mn^2+ excretion amount ([2]; sampling period 0-1 h): 0.0386 mg
Bile: cumulative Mn^2+ excretion amount ([2]; sampling period 0-1 h): 0.0385 mg
Bile: cumulative Mn^2+ excretion rate ([2]; sampling period 0-1 h): 2.81%
Urine: Mn^2+ excretion amount ([2]; sampling period 0-1 h): 0.06995 mg
Urine: cumulative Mn^2+ excretion amount ([2]; sampling period 0-1 h): 0.06995 mg
Urine: cumulative Mn^2+ excretion rate ([2]; sampling period 0-1 h): 5.28%
Bile: Mn^2+ excretion amount ([2]; sampling period 1-2 h): 0.0865 mg
Bile: cumulative Mn^2+ excretion amount ([2]; sampling period 1-2 h): 0.1251 mg
Bile: cumulative Mn^2+ excretion rate ([2]; sampling period 1-2 h): 9.31%
Urine: Mn^2+ excretion amount ([2]; sampling period 1-2 h): 0.1582 mg
Urine: cumulative Mn^2+ excretion amount ([2]; sampling period 1-2 h): 0.2281 mg
Urine: cumulative Mn^2+ excretion rate ([2]; sampling period 1-2 h): 18.27%
Bile: Mn^2+ excretion amount ([2]; sampling period 2-3 h): 0.0518 mg
Bile: cumulative Mn^2+ excretion amount ([2]; sampling period 2-3 h): 0.1768 mg
Bile: cumulative Mn^2+ excretion rate ([2]; sampling period 2-3 h): 13.17%
Urine: Mn^2+ excretion amount ([2]; sampling period 2-3 h): 0.1094 mg
Urine: cumulative Mn^2+ excretion amount ([2]; sampling period 2-3 h): 0.3375 mg
Urine: cumulative Mn^2+ excretion rate ([2]; sampling period 2-3 h): 26.67%
Bile: Mn^2+ excretion amount ([2]; sampling period 3-4 h): 0.0333 mg
Bile: cumulative Mn^2+ excretion amount ([2]; sampling period 3-4 h): 0.2101 mg
Bile: cumulative Mn^2+ excretion rate ([2]; sampling period 3-4 h): 15.69%
Urine: Mn^2+ excretion amount ([2]; sampling period 3-4 h): 0.02084 mg
Urine: cumulative Mn^2+ excretion amount ([2]; sampling period 3-4 h): 0.3399 mg
Urine: cumulative Mn^2+ excretion rate ([2]; sampling period 3-4 h): 26.71%
Bile: Mn^2+ excretion amount ([2]; sampling period 4-5 h): 0.043 mg
Bile: cumulative Mn^2+ excretion amount ([2]; sampling period 4-5 h): 0.2627 mg
Bile: cumulative Mn^2+ excretion rate ([2]; sampling period 4-5 h): 19.66%
Urine: Mn^2+ excretion amount ([2]; sampling period 4-5 h): 0.01213 mg
Urine: cumulative Mn^2+ excretion amount ([2]; sampling period 4-5 h): 0.3521 mg
Urine: cumulative Mn^2+ excretion rate ([2]; sampling period 4-5 h): 27.59%
Bile: Mn^2+ excretion amount ([2]; sampling period 5-6 h): 0.0318 mg
Bile: cumulative Mn^2+ excretion amount ([2]; sampling period 5-6 h): 0.2945 mg
Bile: cumulative Mn^2+ excretion rate ([2]; sampling period 5-6 h): 22.07%
Urine: Mn^2+ excretion amount ([2]; sampling period 5-6 h): 0.00387 mg
Urine: cumulative Mn^2+ excretion amount ([2]; sampling period 5-6 h): 0.3559 mg
Urine: cumulative Mn^2+ excretion rate ([2]; sampling period 5-6 h): 27.88%
Bile: Mn^2+ excretion amount ([2]; sampling period 6-7 h): 0.0265 mg
Bile: cumulative Mn^2+ excretion amount ([2]; sampling period 6-7 h): 0.3209 mg
Bile: cumulative Mn^2+ excretion rate ([2]; sampling period 6-7 h): 24.05%
Urine: Mn^2+ excretion amount ([2]; sampling period 6-7 h): 0.00284 mg
Urine: cumulative Mn^2+ excretion amount ([2]; sampling period 6-7 h): 0.3588 mg
Urine: cumulative Mn^2+ excretion rate ([2]; sampling period 6-7 h): 28.09%
Bile: Mn^2+ excretion amount ([2]; sampling period 7-8 h): 0.0219 mg
Bile: cumulative Mn^2+ excretion amount ([2]; sampling period 7-8 h): 0.3429 mg
Bile: cumulative Mn^2+ excretion rate ([2]; sampling period 7-8 h): 25.67%
Urine: Mn^2+ excretion amount ([2]; sampling period 7-8 h): 0.0018 mg
Urine: cumulative Mn^2+ excretion amount ([2]; sampling period 7-8 h): 0.3606 mg
Urine: cumulative Mn^2+ excretion rate ([2]; sampling period 7-8 h): 28.22%
Bile: Mn^2+ excretion amount ([2]; sampling period 8-9 h): 0.02 mg
Bile: cumulative Mn^2+ excretion amount ([2]; sampling period 8-9 h): 0.3684 mg
Bile: cumulative Mn^2+ excretion rate ([2]; sampling period 8-9 h): 27.03%
Urine: Mn^2+ excretion amount ([2]; sampling period 8-9 h): 0.00083 mg
Urine: cumulative Mn^2+ excretion amount ([2]; sampling period 8-9 h): 0.3614 mg
Urine: cumulative Mn^2+ excretion rate ([2]; sampling period 8-9 h): 28.28%
Bile: Mn^2+ excretion amount ([2]; sampling period 9-10 h): 0.0179 mg
Bile: cumulative Mn^2+ excretion amount ([2]; sampling period 9-10 h): 0.3859 mg
Bile: cumulative Mn^2+ excretion rate ([2]; sampling period 9-10 h): 29.97%
Urine: Mn^2+ excretion amount ([2]; sampling period 9-10 h): 0.00061 mg
Urine: cumulative Mn^2+ excretion amount ([2]; sampling period 9-10 h): 0.362 mg
Urine: cumulative Mn^2+ excretion rate ([2]; sampling period 9-10 h): 28.33%
excretion route ([2]; rats): mainly excreted through liver and kidney
time course of excretion in urine and bile ([2]; rats): mainly in urine at the early stage and then in bile
excreted in liver and kidney ([2]; rats, within 600 min): about 60%
share of liver and kidney in excretion ([2]; rats, within 600 min): half and half
excretion seen by imaging [3]: could be excreted through the kidneys and intestines
liver enhancement [3]: obvious and continuous
passage through the blood-brain barrier [3]: could not pass through the normal blood-brain barrier
